According to patent US12358943B1, “Method of synthesizing testosterone-based thiazolidinone derivatives” (IMAM MOHAMMAD IBN SAUD ISLAMIC UNIVERSITY, priority 2025, dated 2025):

What was measured:
Assay type in all cases: cell-based
[1] = test system: Staphylococcus aureus ATCC 6538-P; assay: Disk diffusion agar antimicrobial activity, S. aureus; settings: 25 mg/ml, 37° C. for 24 hours, mean values; for zone of inhibition at 25000 µg/mL: Staphylococcus aureus, ATCC6538, 24 h, read-out: Bacterial and fungal growth inhibition zone diameter (mm), S. aureus
Procedure: (§1) As used herein, “inhibition zone diameter” refers to a measurement that indicates how effective an antimicrobial is against a bacterium. The diameter of the zone of inhibition can be used to determine the level of sensitivity of the bacterium to the antimicrobial. In laboratory testing, such as the disk diffusion method (Kirby-Bauer test), a paper disk impregnated with the antimicrobial agent is placed on an agar plate inoculated with the microorganism. After incubation, the diameter of the clear zone (inhibition zone) around the disk is measured.
(§2) The reaction conditions and mechanisms are described in subsequent examples. The successful fabrication of the testosterone-based thiazolidinone derivatives was confirmed by different analytical techniques. The antimicrobial activity of newly prepared testosterone-based thiazolidinone derivatives was evaluated against various microorganisms, including Staphylococcus aureus ATCC 6538-P, Escherichia coli ATCC 25933, Candida albicans ATCC 10231, and Aspergillus niger NRRL-A326.
(§3) The antimicrobial activity of the synthesized testosterone-based thiazolidinone derivatives (compound (I), compound (II), and compound (III)) were assessed utilizing the disk diffusion agar methodology. Four representative microbial strains were selected for this study: Staphylococcus aureus ATCC 6538-P (Gram-positive), Escherichia coli ATCC 25933 (Gram-negative), Candida albicans ATCC 10231, and Aspergillus niger NRRL-A326. Nutrient agar plates were uniformly inoculated with 0.1 mL of a cell suspension at a density of […] to 10^6 cells/mL for both bacterial and yeast cultures. Following inoculation, samples were introduced onto the agar plates. The plates were subsequently incubated at refrigeration temperature (4° C.) for 2 to 4 hours to enhance the diffusion of the antimicrobial agents. Thereafter, the plates were incubated at 37° C. for 24 hours for bacterial growth and at 30° C. for 48 hours for yeast and fungal growth, maintaining an upright orientation to maximize the growth of the microorganisms. The antimicrobial activity of the testosterone-based thiazolidinone derivatives was quantified by measuring the diameter of the zone of inhibition, which was reported in millimeters (mm). The concentration of the tested testosterone-based thiazolidinone derivatives was 25 mg/ml. This experimental protocol was replicated multiple times, and the mean values of the observed readings were recorded.

[2] = test system: Aspergillus niger NRRL-A326; assay: Disk diffusion agar antimicrobial activity, A. niger; settings: 30° C. for 48 hours, mean values; for Bacterial and fungal growth inhibition zone diameter (mm), A. niger: 25 mg/ml; for zone of inhibition at 25000 µg/mL: Aspergillus niger, NRRLA326, 25 mg/ml, read-out: Bacterial and fungal growth inhibition zone diameter (mm), A. niger
Procedure: as §1, §2, §3

[3] = test system: Candida albicans ATCC 10231; assay: Disk diffusion agar antimicrobial activity, C. albicans; settings: 25 mg/ml, 30° C. for 48 hours, mean values; for zone of inhibition at 25000 µg/mL: Candida albicans, ATCC10231, 48 h, read-out: Bacterial and fungal growth inhibition zone diameter (mm), C. albicans
Procedure: as §1, §2, §3

[4] = test system: Escherichia coli ATCC 25933; assay: Disk diffusion agar antimicrobial activity, E. coli; settings: 25 mg/ml, 37° C. for 24 hours, mean values; for zone of inhibition at 25000 µg/mL: Escherichia coli, ATCC25933, 24 h, read-out: Bacterial and fungal growth inhibition zone diameter (mm), E. coli
Procedure: as §1, §2, §3

[5] = listed as compound III where Ar is 4-ClC6H4
[6] = listed as compound III where Ar is C6H5
[7] = listed as compound III where Ar is CH2C6H4

Compound	Bacterial and fungal growth inhibition zone diameter (mm), S. aureus [1] [mm]	Bacterial and fungal growth inhibition zone diameter (mm), S. aureus [1, 5]	Bacterial and fungal growth inhibition zone diameter (mm), A. niger [2] [mm]	Bacterial and fungal growth inhibition zone diameter (mm), A. niger [2, 5]	Bacterial and fungal growth inhibition zone diameter (mm), C. albicans [3] [mm]	Bacterial and fungal growth inhibition zone diameter (mm), C. albicans [3, 5]	Bacterial and fungal growth inhibition zone diameter (mm), E. coli [4] [mm]	Bacterial and fungal growth inhibition zone diameter (mm), E. coli [4, 5]	Bacterial and fungal growth inhibition zone diameter (mm), S. aureus [1, 6]	Bacterial and fungal growth inhibition zone diameter (mm), A. niger [2, 6]	Bacterial and fungal growth inhibition zone diameter (mm), C. albicans [3, 6]	Bacterial and fungal growth inhibition zone diameter (mm), E. coli [4, 6]	Bacterial and fungal growth inhibition zone diameter (mm), S. aureus [1, 7]	Bacterial and fungal growth inhibition zone diameter (mm), A. niger [2, 7]	Bacterial and fungal growth inhibition zone diameter (mm), C. albicans [3, 7]	Bacterial and fungal growth inhibition zone diameter (mm), E. coli [4, 7]	zone of inhibition at 25000 µg/mL [1] [mm]	zone of inhibition at 25000 µg/mL [2] [mm]	zone of inhibition at 25000 µg/mL [3] [mm]	zone of inhibition at 25000 µg/mL [4] [mm]
CC12CCC(=NN=C3NC(=O)C(CC(=O)Nc4ccc(Cl)cc4)S3)C=C1CCC1C2CCC2(C)C(O)CCC12 (centres unmarked) [Compound III Ar = 4-ClC6H4]	38	at least 38 mm	43	at least 43 mm	41	at least 41 mm	39	at least 39 mm	–	–	–	–	–	–	–	–	–	–	–	–
CC12CCC(=NN=C3NC(=O)C(CC(=O)Nc4ccccc4)S3)C=C1CCC1C2CCC2(C)C(O)CCC12 (centres unmarked) [Compound III Ar = C6H5]	35	–	37	–	36	–	32	–	at least 35 mm	at least 37 mm	at least 36 mm	at least 32 mm	–	–	–	–	–	–	–	–
CC12CCC(=NN=C3NC(=O)C(CC(=O)NCc4ccccc4)S3)C=C1CCC1C2CCC2(C)C(O)CCC12 (centres unmarked) [Compound III Ar = CH2C6H4]	19	–	44	–	21	–	17	–	–	–	–	–	at least 19 mm	at least 44 mm	at least 21 mm	at least 17 mm	–	–	–	–
COC(=O)/C=C1/S/C(=N\N=C2\C=C3CC[C@H]4[C@@H]5CC[C@H](O)[C@@]5(C)CC[C@@H]4[C@@]3(C)CC2)NC1=O [Compound II]	29	–	–	–	29	–	26	–	–	–	–	–	–	–	–	–	≥ 29	0	≥ 29	≥ 26
C[C@]12CC[C@H]3[C@@H](CCC4=C/C(=N/NC(N)=S)CC[C@@]43C)[C@@H]1CC[C@@H]2O [Compound I]	–	–	–	–	–	–	–	–	–	–	–	–	–	–	–	–	0	0	0	0
